Target: T1, PAPD5 (Homo sapiens, UniProt Q8NDF8)
T1 construct: made in house
Assay: High-throughput luminescence (KinaseGlo) RNA polyadenylation assay, ATP utilization by recombinant PAPD5
Type: biochemical
Conditions: for Fold-change determined at compound concentration 33 μM: 33 μM compound; for Fold-change determined at compound concentration 100 μM / fold change at 100 μM concentration in the assay: 100 μM compound; for Fold-change determined at compound concentration 100 μM: higher = higher inhibition
Method: Optimal conditions for an in vitro RNA polyadenylation assay using recombinant PAPD5, ATP and an oligonucleotide substrate were identified. The HTS assay involved ATP utilization by PAPD5, which reads out as a decreased luminescence signal produced by luciferase (KinaseGlo, Promega, Madison, WI).
100 nl of compound dissolved in DMSO was transferred to each well of the assay plate via pin transfer. For negative control wells, DMSO alone was added. Plates were gently vortexed for 5 seconds, then incubated for 2 hours at room temperature.
After 2 hours, 5 ul of luciferase (Promega KinaseGlo, Madison, WI) was added using a MultiDrop Combi (Thermo Fisher Scientific, Waltham, MA). The mixture was gently vortexed for 5 seconds and incubated for 10 minutes at room temperature. Plates were spun for 1 minute prior to luminescence measurements. Luminescent measurements were quantitated using a PerkinElmer EnVision™ plate reader.
˜100,000 compounds from various libraries at the ICCB-Longwood were screened in this manner in duplicate.
The fold change was the ratio of luminescence from a sample with inhibitor compared to that with DMSO. Thus, a higher number indicates higher inhibition.

[1] = Table 4 (entries of Table 5), ratio of luminescence with inhibitor to DMSO

T1 sequence (Q8NDF8 68-698 isoform Q8NDF8-5): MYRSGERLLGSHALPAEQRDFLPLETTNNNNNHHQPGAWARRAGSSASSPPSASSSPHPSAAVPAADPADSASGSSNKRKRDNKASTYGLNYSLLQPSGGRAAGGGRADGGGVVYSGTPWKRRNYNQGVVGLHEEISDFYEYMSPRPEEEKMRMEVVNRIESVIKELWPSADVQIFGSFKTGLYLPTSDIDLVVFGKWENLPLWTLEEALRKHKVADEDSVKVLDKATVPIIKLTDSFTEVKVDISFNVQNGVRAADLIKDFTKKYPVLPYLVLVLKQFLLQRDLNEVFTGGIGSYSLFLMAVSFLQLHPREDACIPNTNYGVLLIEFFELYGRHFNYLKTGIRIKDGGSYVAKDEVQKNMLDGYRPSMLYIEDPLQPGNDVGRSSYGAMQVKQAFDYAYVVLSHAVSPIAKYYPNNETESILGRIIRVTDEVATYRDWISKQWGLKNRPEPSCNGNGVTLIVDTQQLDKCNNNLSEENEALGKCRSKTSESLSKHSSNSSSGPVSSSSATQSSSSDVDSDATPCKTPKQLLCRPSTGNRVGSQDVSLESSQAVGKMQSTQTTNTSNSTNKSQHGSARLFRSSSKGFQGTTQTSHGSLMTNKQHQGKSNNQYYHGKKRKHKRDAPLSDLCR

Cc1ccccc1C(=O)Nc1nc2nc(-c3ccccc3)cc(=O)n2[nH]1 [Entry 150, 2-methyl-N-(7-oxo-5-phenyl-1H-[1,2,4]triazolo[1,5-a]pyrimidin-2-yl)benzamide]
Fold-change determined at compound concentration 33 μM [1]: 1.19
Fold-change determined at compound concentration 100 μM [1]: 1.577

CCc1nnc(NC(=O)c2cc(=O)c3cc(C)c(C)cc3o2)s1 [Entry 123, N-(5-ethyl-1,3,4-thiadiazol-2-yl)-6,7-dimethyl-4-oxo-4H-chromene-2-carboxamide]
Fold-change determined at compound concentration 10 μM (Table 4 (entries of Table 5), 10 μM compound, ratio of luminescence with inhibitor to DMSO): 1.211
Fold-change determined at compound concentration 33 μM [1]: 1.528
Fold-change determined at compound concentration 100 μM [1]: 2.189

Cc1c2c(=O)n(-c3nc4ccccc4s3)[nH]c2cc(=O)n1Cc1ccc(C(=O)O)cc1 [Entry 177, 4-[[2-(1,3-benzothiazol-2-yl)-4-methyl-3,6-dioxo-1H-pyrazolo[4,3-c]pyridin-5-yl]methyl]benzoic acid]
Fold-change determined at compound concentration 33 μM [1]: 1.053
Fold-change determined at compound concentration 100 μM [1]: 1.4

CC(C)C(CO)Nc1nc(Nc2ccc(C(=O)O)c(Cl)c2)c2ncn(C(C)C)c2n1 (stereo in doubt) [Entry 46, 2-chloro-4-[[2-[[(2R)-1-hydroxy-3-methylbutan-2-yl]amino]-9-propan-2-ylpurin-6-yl]amino]benzoic acid]
Fold-change determined at compound concentration 33 μM [1]: 1.079
Fold-change determined at compound concentration 100 μM [1]: 1.328

O=S(=O)(Nc1ccc2nnc(-c3ccccc3)n2n1)c1ccc(Cl)cc1 [Entry 51, 4-chloro-N-(3-phenyl-[1,2,4]triazolo[4,3-b]pyridazin-6-yl)benzenesulfonamide]
Fold-change determined at compound concentration 33 μM [1]: 1.242
Fold-change determined at compound concentration 100 μM [1]: 1.825

N#C/C(=C\c1ccc(-c2ccc(Cl)c(C(=O)O)c2)o1)c1nc2ccccc2[nH]1 [Entry 245, 5-[5-[(E)-2-(1H-benzimidazol-2-yl)-2-cyanoethenyl]furan-2-yl]-2-chlorobenzoic acid]
Fold-change determined at compound concentration 33 μM [1]: 1.236
Fold-change determined at compound concentration 100 μM [1]: 1.638

NC(=O)C1CCN(c2nc3c(S(=O)(=O)c4ccccc4)nnn3c3ccsc23)CC1 [Entry 44, 1-(3-(phenylsulfonyl)thieno[2,3-e][1,2,3]triazol[1,5-a]pyrimidin-5-yl)piperidine-4-carboxamide]
Fold-change determined at compound concentration 33 μM [1]: 1.273
Fold-change determined at compound concentration 100 μM [1]: 1.651

O=C1c2cnccc2CN1c1cc(F)ccc1F [Entry 212, 2-(2,5-difluorophenyl)-1H-pyrrolo[3,4-c]pyridin-3-one]
Fold-change determined at compound concentration 33 μM [1]: 1.077
Fold-change determined at compound concentration 100 μM [1]: 1.799

NC(=O)CN1c2ccc(F)cc2-c2ccccc2S1(=O)=O [Entry 241, 2-(9-fluoro-5,5-dioxido-6H-dibenzo[c,e][1,2]thiazin-6-yl)acetamide]
Fold-change determined at compound concentration 33 μM [1]: 1.099
Fold-change determined at compound concentration 100 μM [1]: 1.249

COc1ccc(S(=O)(=O)Nc2cc3c(cc2Oc2ccccc2)n(C)c(=O)c(=O)n3C)cc1 [Entry 136, N-(1,4-dimethyl-2,3-dioxo-7-phenoxy-1,2,3,4-tetrahydroquinoxalin-6-yl)-4-methoxybenzenesulfonamide]
Fold-change determined at compound concentration 33 μM [1]: 1.082
Fold-change determined at compound concentration 100 μM [1]: 1.303

Cc1ccc(-c2ccc3nnc(C)n3n2)cc1S(=O)(=O)N1CCCC1 [Entry 146, 3-methyl-6-(4-methyl-3-pyrrolidin-1-ylsulfonylphenyl)-[1,2,4]triazolo[4,3-b]pyridazine]
Fold-change determined at compound concentration 33 μM [1]: 1.07
Fold-change determined at compound concentration 100 μM [1]: 1.217

CC(C)c1nnc(NC(=O)c2cc(=O)c3ccc(Br)cc3o2)s1 [Entry 121, 7-bromo-4-oxo-N-(5-propan-2-yl-1,3,4-thiadiazol-2-yl)chromene-2-carboxamide]
Fold-change determined at compound concentration 33 μM [1]: 1.118
Fold-change determined at compound concentration 100 μM [1]: 1.26

C=CCNC(=O)c1sc(=S)n2c1[nH]c(=O)c1cc3c(cc12)OCO3 [N-allyl-5-oxo-1-thioxo-4,5-dihydro[1,3]dioxolo[4,5-g][1,3]thiazolo[3,4-a]quinazoline-3-carboxamide]
fold change at 100 μM concentration in the assay: 3.1

O=C(CCCn1c(=O)c2cccn2c2ccc(Br)cc21)N1CCCC1 [Entry 65, 7-bromo-5-(4-oxo-4-pyrrolidin-1-ylbutyl)pyrrolo[1,2-a]quinoxalin-4-one]
Fold-change determined at compound concentration 33 μM [1]: 1.23
Fold-change determined at compound concentration 100 μM [1]: 1.394

COc1c2ccoc2nc2c(OC)cccc12 [Entry 92, 4,8-dimethoxyfuro[2,3-b]quinoline]
Fold-change determined at compound concentration 33 μM [1]: 1.175
Fold-change determined at compound concentration 100 μM [1]: 1.478

Cc1nn(CC(=O)O)c(=O)c2cc3cc(F)ccc3n12 [Entry 214, 2-(8-fluoro-4-methyl-1-oxo-[1,2,4]triazino[4,5-a]indol-2-yl)acetic acid]
Fold-change determined at compound concentration 33 μM [1]: 1.118
Fold-change determined at compound concentration 100 μM [1]: 1.213

CCOc1ccc2oc(=O)cc(CN3CCN(C(=O)c4ccc(OC)c(OC)c4)CC3)c2c1 [Entry 129, 4-[[4-(3,4-dimethoxybenzoyl)piperazin-1-yl]methyl]-6-ethoxychromen-2-one]
Fold-change determined at compound concentration 33 μM [1]: 1.153
Fold-change determined at compound concentration 100 μM [1]: 1.395

COc1ccc(-c2[nH]nc3nc(-c4cc(OC)c(OC)c(OC)c4)cc(C(=O)O)c23)cc1 [Entry 141, 3-(4-methoxyphenyl)-6-(3,4,5-trimethoxyphenyl)-2H-pyrazolo[3,4-b]pyridine-4-carboxylic acid]
Fold-change determined at compound concentration 33 μM [1]: 1.308
Fold-change determined at compound concentration 100 μM [1]: 1.882

CCOC(=O)c1ccc(NC(=O)CCc2c(C)nc3c(c(C)nn3C)c2C)cc1 [Entry 184, ethyl 4-[3-(1,3,4,6-tetramethylpyrazolo[3,4-b]pyridin-5-yl)propanoylamino]benzoate]
Fold-change determined at compound concentration 33 μM [1]: 1.245
Fold-change determined at compound concentration 100 μM [1]: 1.294

CCCCn1c(=O)c2sccc2n2c(=S)[nH]nc12 [Entry 71, 4-butyl-1-thioxo-2,4-dihydrothieno[2,3-e][1,2,4]triazolo[4,3-a]pyrimidin-5(1H)-one]
Fold-change determined at compound concentration 33 μM [1]: 1.173
Fold-change determined at compound concentration 100 μM [1]: 1.531

OCCN(CCO)c1nc(N2CCCCC2)c2nc(N(CCO)CCO)nc(N3CCCCC3)c2n1 [Entry 34, 2,2′,2″,2″′-((4,8-Di(piperidin-1-yl)pyrimido[5,4-d]pyrimidine-2,6-diyl)bis(azanetriyl))tetraethanol]
Fold-change determined at compound concentration 33 μM [1]: 1.098
Fold-change determined at compound concentration 100 μM [1]: 1.212

O=C(O)c1ccc(N2C(=O)c3[nH]nc(-c4ccccc4)c3C2c2cccc(O)c2)cc1 (stereo not shown) [Entry 242, 4-[4-(3-hydroxyphenyl)-6-oxo-3-phenyl-1,4-dihydropyrrolo[3,4-c]pyrazol-5-yl]benzoic acid]
Fold-change determined at compound concentration 33 μM [1]: 1.068
Fold-change determined at compound concentration 100 μM [1]: 1.283

Nc1c2ccccc2nc2ccccc12 [Entry 30, acridin-9-amine]
Fold-change determined at compound concentration 33 μM [1]: 1.313
Fold-change determined at compound concentration 100 μM [1]: 1.944

CCOc1ccccc1CNC(=O)Nc1cn(CC(C)C)c(=O)c2ccccc12 [Entry 59, 1-[(2-ethoxyphenyl)methyl]-3-[2-(2-methylpropyl)-1-oxoisoquinolin-4-yl]urea]
Fold-change determined at compound concentration 33 μM [1]: 1.113
Fold-change determined at compound concentration 100 μM [1]: 1.69

O=c1oc2cc(OCc3nnn[nH]3)c(Cl)cc2c2c1CCC2 [Entry 133, 8-chloro-7-(1H-tetrazol-5-ylmethoxy)-2,3-dihydrocyclopenta[c]chromen-4(1H)-one]
Fold-change determined at compound concentration 33 μM [1]: 1.186
Fold-change determined at compound concentration 100 μM [1]: 1.508

Cc1ccc(C(=O)Nc2c(-c3ccccc3)nc3ccccn23)cc1C [Entry 189, 3,4-dimethyl-N-(2-phenylimidazo[1,2-a]pyridin-3-yl)benzamide]
Fold-change determined at compound concentration 33 μM [1]: 1.206
Fold-change determined at compound concentration 100 μM [1]: 1.311

Cc1ccc(Cl)cc1NCc1nc2[nH]c3c(c(=O)n2n1)CCC3 [Entry 154, 2-{[(5-chloro-2-methylphenyl)amino]methyl}-4,5,6,7-tetrahydro-8H-cyclopenta[d][1,2,4]triazolo[1,5-a]pyrimidin-8-one]
Fold-change determined at compound concentration 33 μM [1]: 1.013
Fold-change determined at compound concentration 100 μM [1]: 1.282

Clc1ccc(Nc2nnc(Cc3ccncc3)c3ccccc23)cc1 [Entry 52, N-(4-chlorophenyl)-4-(pyridin-4-ylmethyl)phthalazin-1-amine]
Fold-change determined at compound concentration 33 μM [1]: 1.133
Fold-change determined at compound concentration 100 μM [1]: 1.275

CCCCN(C)c1cc(C(=O)O)c2cc(NC(=O)c3ccccc3OC)ccc2n1 [Entry 31, 2-[butyl(methyl)amino]-6-[(2-methoxybenzoyl)amino]quinoline-4-carboxylic acid]
Fold-change determined at compound concentration 33 μM [1]: 1.304
Fold-change determined at compound concentration 100 μM [1]: 1.895

COCCNC(=O)CSc1c2c(nc3cc(Cl)ccc13)CCCC2 [Entry 89, 2-[(6-chloro-1,2,3,4-tetrahydroacridin-9-yl)sulfanyl]-N-(2-methoxyethyl)acetamide]
Fold-change determined at compound concentration 33 μM [1]: 1.098
Fold-change determined at compound concentration 100 μM [1]: 1.211

O=C(O)C1CC(=O)N(Cc2ccc3c(c2)OCO3)C1 (stereo not shown) [1-(1,3-benzodioxol-5-ylmethyl)-5-oxopyrrolidine-3-carboxylic acid]
fold change at 100 μM concentration in the assay: 3.9

Reference: patent publication US12171755B2, “PAPD5 inhibitors and methods of use thereof” (Children's Medical Center Corporation, priority 2017, dated 2024)
